# Laboratory results taken from patent EP1206258B1, “COMPOSITIONS CONTAINING ESTERS FOR TREATING PARASITIC INFESTATIONS OF ORGANISMS” (priority 1999, dated 2001).
# Columns and labels:
# [1] = test system: Psoroptes cuniculi; assay: in vitro immersion assay on the mite Psoroptes cuniculi; conditions: for mites had died: exposed for 24 hours, control 8%
# Experimental: A series of in vitro assays were conducted to examine the effects of the compound trans-cinnamic acid ethyl ester on the mite Psoroptes cuniculi. This mite infests rabbits and is very similar to the mite Psoroptes ovis which infests sheep and causes sheep scab.
# The mites were taken from the ears of infested rabbits and exposed for 24 hours to the active compound at concentrations of 10, 1 or 0.1 % (V/V). The concentrations were obtained by serial dilution of the compound in 0.05% sodium dodecyl sulphate (SDS).
# This is illustrated in Figure 2 of the accompanying drawings.
# The LC95 was 6.29% (95% confidence interval 4.98-8.88).
# Line (1) represents adult males, line (2) adult females and (3) female nymphs.
# Thus, trans-cinnamic acid ethyl ester gives greater than 50% levels of mortality within 24 hours, for all life cycle stages of P. cuniculi after short contact times (1 min) at concentrations of 2.2% (V/V). At one minute contact time, concentrations of greater than 6% (V/V) are required to bring about mortality of greater than 95%. Recent theoretical analysis using simulation modelling (Wall, unpublished) has shown that sustained mortality of greater than 50% per day is required to suppress a growing population of P. ovis.
# [2] = test system: all stages of blow fly and larval life cycle; assay: activity against blow fly and larval stages
# [3] = test system: Rhizopus arrhizus; assay: growth inhibition test on SAB agar, R. arrhizus; assay type: cell-based
# Experimental: The antifungal activity of ethyl trans-cinnamate against a number of different fungi was investigated by means of in a simple growth inhibition test.
# The following quantities of Ethyl trans-Cinnamate were added to Sabourand Dextrose agar (SAB); 50 ml L^-1, 4ml L^-1, 2ml L^-1, 1ml L^-1, 400 µl L^-1, 200 µl L^-1 and 40 µl L^-1. […] These were then autoclaved and poured into standard Petri dishes. […] Duplicate plates of each concentration, plus control plates containing only SAB Agar, where then separately inoculated with, four different species of fungi, these were Aspergillus nidulans, Penicillium digitatum, Rhizopus arrhizus and Fusarium culmorum. Inoculation was carried out using a single stab at the centre of each Petri dish. The plates were then incubated at 30°C for 6 days and daily measurements of mycobial growth where taken every 24 hours.
# [4] = test system: Guinea Pig; conditions: Oral, VPITAR 33(5)48,74; cited from earlier work
structure (smiles),measurement,setting,value
CCOC(=O)/C=C/c1ccccc1 [trans-cinnamic acid ethyl ester],LT50,"[1]; 0.1% (V/V), same as control (0.05% SDS only)",approximately 2.5 days
same,LD 25 Concentration (% V/V),[1]; 24 hours after exposure,0.53 % V/V
same,LD 50 Concentration (% V/V) (LC50),[1]; 24 hours after exposure,2.21 % V/V
same,LD 75 Concentration (% V/V),[1]; 24 hours after exposure,3.88 % V/V
same,LD 95 Concentration (% V/V) (LC95),[1]; 24 hours after exposure,6.29 % V/V
same,50% mortality (LT50),[1]; concentration 1%,1 days
same,50% mortality (LT50),[1]; concentration 10%,0.5 days
same,mites had died,[1]; 0.1 % (V/V) in 0.05% SDS,20%
same,mites had died,[1]; 1 % (V/V) in 0.05% SDS,74%
same,mites had died,[1]; 10 % (V/V) in 0.05% SDS,100%
same,concentrations required to bring about mortality of greater than 95%,[1]; one minute contact time,greater than 6 % (V/V)
same,levels of mortality,"[1]; within 24 hours, all life cycle stages, contact time 1 min, 2.2% (V/V)",greater than 50%
same,effectiveness against all stages of blow fly and larval life cycle,[2],ineffective
same,Level of Radial Growth (mm) of R. arrhizus,"[3]; 1ml L^-1, Day 1",8.5 mm
same,Level of Radial Growth (mm) of R. arrhizus,"[3]; 1ml L^-1, Day 2",45.0 mm
same,Level of Radial Growth (mm) of R. arrhizus,"[3]; 1ml L^-1, Day 3",45.0 mm
same,Level of Radial Growth (mm) of R. arrhizus,"[3]; 1ml L^-1, Day 4",45.0 mm
same,Level of Radial Growth (mm) of R. arrhizus,"[3]; 1ml L^-1, Day 5",45.0 mm
same,Level of Radial Growth (mm) of R. arrhizus,"[3]; 1ml L^-1, Day 6",45.0 mm
same,Level of Radial Growth (mm) of R. arrhizus,"[3]; 2ml L^-1, Day 1",1. mm
same,Level of Radial Growth (mm) of R. arrhizus,"[3]; 2ml L^-1, Day 2",45.0 mm
same,Level of Radial Growth (mm) of R. arrhizus,"[3]; 2ml L^-1, Day 3",45.0 mm
same,Level of Radial Growth (mm) of R. arrhizus,"[3]; 2ml L^-1, Day 4",45.0 mm
same,Level of Radial Growth (mm) of R. arrhizus,"[3]; 2ml L^-1, Day 5",45.0 mm
same,Level of Radial Growth (mm) of R. arrhizus,"[3]; 2ml L^-1, Day 6",45.0 mm
same,Level of Radial Growth (mm) of R. arrhizus,"[3]; 4ml L^-1, Day 1",0 mm
same,Level of Radial Growth (mm) of R. arrhizus,"[3]; 4ml L^-1, Day 2",23.5 mm
same,Level of Radial Growth (mm) of R. arrhizus,"[3]; 4ml L^-1, Day 3",45.0 mm
same,Level of Radial Growth (mm) of R. arrhizus,"[3]; 4ml L^-1, Day 4",45.0 mm
same,Level of Radial Growth (mm) of R. arrhizus,"[3]; 4ml L^-1, Day 5",45.0 mm
same,Level of Radial Growth (mm) of R. arrhizus,"[3]; 4ml L^-1, Day 6",45.0 mm
same,Level of Radial Growth (mm) of R. arrhizus,"[3]; 40µl L^-1, Day 1",26.0 mm
same,Level of Radial Growth (mm) of R. arrhizus,"[3]; 40µl L^-1, Day 2",45.0 mm
same,Level of Radial Growth (mm) of R. arrhizus,"[3]; 40µl L^-1, Day 3",45.0 mm
same,Level of Radial Growth (mm) of R. arrhizus,"[3]; 40µl L^-1, Day 4",45.0 mm
same,Level of Radial Growth (mm) of R. arrhizus,"[3]; 40µl L^-1, Day 5",45.0 mm
same,Level of Radial Growth (mm) of R. arrhizus,"[3]; 40µl L^-1, Day 6",45.0 mm
same,duration of complete inhibition of growth,"[3]; 50ml L-^1 and higher doses, further experiments, data not shown",at least 8 days
same,inhibition of growth,[3]; 50ml L-^1 level,complete inhibition of growth
same,Level of Radial Growth (mm) of R. arrhizus,"[3]; 50 ml L^-1, Day 1",0 mm
same,Level of Radial Growth (mm) of R. arrhizus,"[3]; 50 ml L^-1, Day 2",0 mm
same,Level of Radial Growth (mm) of R. arrhizus,"[3]; 50 ml L^-1, Day 3",0 mm
same,Level of Radial Growth (mm) of R. arrhizus,"[3]; 50 ml L^-1, Day 4",0 mm
same,Level of Radial Growth (mm) of R. arrhizus,"[3]; 50 ml L^-1, Day 5",0 mm
same,Level of Radial Growth (mm) of R. arrhizus,"[3]; 50 ml L^-1, Day 6",0 mm
same,Level of Radial Growth (mm) of R. arrhizus,"[3]; 200µl L^-1, Day 1",18.0 mm
same,Level of Radial Growth (mm) of R. arrhizus,"[3]; 200µl L^-1, Day 2",45.0 mm
same,Level of Radial Growth (mm) of R. arrhizus,"[3]; 200µl L^-1, Day 3",45.0 mm
same,Level of Radial Growth (mm) of R. arrhizus,"[3]; 200µl L^-1, Day 4",45.0 mm
same,Level of Radial Growth (mm) of R. arrhizus,"[3]; 200µl L^-1, Day 5",45.0 mm
same,Level of Radial Growth (mm) of R. arrhizus,"[3]; 200µl L^-1, Day 6",45.0 mm
same,Level of Radial Growth (mm) of R. arrhizus,"[3]; 400µl L^-1, Day 1",14.5 mm
same,Level of Radial Growth (mm) of R. arrhizus,"[3]; 400µl L^-1, Day 2",45.0 mm
same,Level of Radial Growth (mm) of R. arrhizus,"[3]; 400µl L^-1, Day 3",45.0 mm
same,Level of Radial Growth (mm) of R. arrhizus,"[3]; 400µl L^-1, Day 4",45.0 mm
same,Level of Radial Growth (mm) of R. arrhizus,"[3]; 400µl L^-1, Day 5",45.0 mm
same,Level of Radial Growth (mm) of R. arrhizus,"[3]; 400µl L^-1, Day 6",45.0 mm
same,LDSO,[4],4000 mg/kg
